# From article PMC5310970 (Journal of photochemistry and photobiology. B, Biology, 2016)
# Target: Prostate-specific membrane antigen (PSMA) (Homo sapiens, UniProt Q04609)
# Assay: fluorescence-based NAALADase inhibition assay
# Format: biochemical
# Sequence of Prostate-specific membrane antigen (PSMA) (Q04609 whole entry): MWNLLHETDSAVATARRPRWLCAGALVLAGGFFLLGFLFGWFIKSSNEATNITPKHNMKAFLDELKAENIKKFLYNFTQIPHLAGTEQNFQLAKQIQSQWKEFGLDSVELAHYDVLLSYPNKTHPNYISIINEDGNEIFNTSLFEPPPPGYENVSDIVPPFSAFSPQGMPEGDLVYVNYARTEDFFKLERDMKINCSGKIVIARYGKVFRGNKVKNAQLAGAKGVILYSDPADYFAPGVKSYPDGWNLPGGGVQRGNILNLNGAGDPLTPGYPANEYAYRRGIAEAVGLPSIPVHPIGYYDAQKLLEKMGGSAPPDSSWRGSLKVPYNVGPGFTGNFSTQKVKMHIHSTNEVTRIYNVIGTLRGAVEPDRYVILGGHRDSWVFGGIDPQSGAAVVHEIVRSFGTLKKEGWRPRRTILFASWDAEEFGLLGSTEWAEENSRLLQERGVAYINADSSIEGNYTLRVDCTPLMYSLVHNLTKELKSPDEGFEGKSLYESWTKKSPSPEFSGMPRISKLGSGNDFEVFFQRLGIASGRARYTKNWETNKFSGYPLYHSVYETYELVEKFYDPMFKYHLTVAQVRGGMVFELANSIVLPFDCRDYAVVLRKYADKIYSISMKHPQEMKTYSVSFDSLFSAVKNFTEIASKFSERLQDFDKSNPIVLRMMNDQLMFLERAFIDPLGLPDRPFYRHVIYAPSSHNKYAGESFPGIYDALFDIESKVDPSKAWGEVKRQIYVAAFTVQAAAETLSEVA
substance,measurement,value
YC-9,Ki,0.2 nM
